Reference: patent US20050163876A1, “Cancer treatment using natural plant products or essential oils or components from some pistacia species” (DATA MEDICA PADOVA S.p.A., priority 2003, published 2005)

Experiments:
[1] = system: LoVo cells; experiment: Pearson correlation between oil components and cytotoxic activity; parameters: species or system human; conditions: P. lentiscus oils / LoVo cells
Protocol: The Pearson correlation and linear regression analyzes between the oil components and biological activity was also determined. To the scope all data were collected in a data base and analysed by the GraphPad Prism Version 3.0 statistical software to identify substances directly responsible of biological activity.

[2] = system: transplanted hamster pancreatic tumors; conditions: cited from earlier work

| Compound | Pearson correlation r between oil component and cytotoxic activity [1] | growth of transplanted tumors relative to controls [2] |
| --- | --- | --- |
| CC(=O)OC1CC2CCC1(C)C2(C)C (stereo not shown) [Bornyl Acetate] | 0.8693 |  |
| Cc1ccc(C(C)C)cc1 [Para cymene, Para Cymene] | −0.8621 |  |
| C=C1CC[C@H]2O[C@]2(C)CC[C@@H]2[C@@H]1CC2(C)C [Caryophyllene Oxide] | 0.8355 |  |
| C=C(C)[C@@H]1CC=C(CO)CC1 [perillyl alcohol] |  | less than half that of controls |
